# Results reported in patent US5567736A, “Use of a choline salt to inhibit fatty liver in patients receiving total parenteral nutrition” (priority 1994, dated 1996).
# “And” between values parts separate entries of the source, which are not always exact repeats. Equal values may be shown once.
# Key:
# [1] = test system: hepatic steatosis (liver)
# Description: (§1) Four subjects who were known to have low plasma free choline levels and hepatic steatosis were studied. The subjects included 3 females and 1 person. Two subjects had short bowel syndrome from Crohn's disease, one had radiation enteritis and the fourth had pseudo-obstruction. The subjects had received home TPN for 9.7±4.7 years. Their TPN consisted of 2-3L of 15-25% dextrose solution with 3.0-3.5% amino acids, electrolytes, trace elements and vitamins. All subjects received 19.5±3.7 kcal-kg day actual body weight (range 16-24 kcal/kg/d). This level of support varied between subjects depending upon individual variation in oral intake and intestinal absorption.
# Intravenous lipid (Intralipid 20%, Clintec, Deerfield, Ill.) supplied 42.5%±25.7% of daily intravenous caloric intake. […] The TPN solution for each subject included 2.3-5 g of methionine on a daily basis depending upon the total amino acid concentration. The vitamin preparation included 5 μg vitamin B12 and 400 μg folate on a daily basis. All subjects received their TPN nightly as one dose over a period of 10-12 hours.
# (§2) Plasma-free choline level, serum SGOT, SGPT and total cholesterol levels were measured at each visit. Plasma free choline was measured by gas chromatography and mass spectrophotometry (See Jenden DJ, Roch M, Booth RA. Simultaneous measurements of endogenous and deuterium-labeled tracer variants of choline and acetylcholine in subpicomole quantities by gas chromatography spectrometry. Anal Biochem. 55:438-48, 1973; and Freeman JJ, Choi RL, Jenden DJ. Plasma choline: its turnover and exchange with brain choline. J. Neurochem. 24:729-34, 1975.)
# Computed tomography (CT) was used as a non-invasive method for quantifying hepatic fat density. Limited non-contrast CT scanning of the liver and spleen was performed using a GE 9800 CT scanner (Milwaukee, Wis.). Multiple contiguous 1-cm axial sections at 1-cm intervals were obtained. Attenuation values for regions of interest in the liver and spleen were generated from multiple representative sections. An average (mean) CT number in Hounsfield units (HU) was then calculated for each organ. Liver density was determined using two currently acceptable methods: a) the average absolute liver CT number, and b) the liver-spleen differential obtained by subtracting the average spleen CT number from the average liver CT number (to correct for interscan variability).
# In the normal state, the liver and spleen maintain a fairly constant relationship in terms of relative CT numbers on non-contrast scans. On the main scanner employed at our institution, normal liver density corresponds to approximately 45 HU in absolute terms, and normal liver attenuation values exceed those of the spleen by approximately 8 HU (i.e., a liver-spleen differential of approximately positive 8 HU). Fat has a distinctly lower attenuation than other tissues and thus a distinct appearance on the CT image, as well as a distinctly low CT number in HU. Hepatic density and hepatic steatosis are therefore inversely related. Fatty liver was defined as an absolute CT number </=45 HU, or a liver-spleen differential of </= positive 8.0 HU (with 0-to-positive 8 HU representing borderline fatty change and </=0 HU corresponding to marked fatty infiltration).
# [2] = test system: hepatic transaminase levels; details: during the study, except Subject #1; three of four subjects had normal AST and ALT at baseline
# Experimental: as §2
# (§3) The hepatic transaminase levels and cholesterol were determined using standard automated techniques. Plasma phospholipid bound choline was measured at baseline, at the end of the 6 week nightly choline infusion and 4 weeks later following extraction as described by Folch et al (Folch J, Lees M, Stanley GHS. A simple method for the isolation and purification of total lipids from animal tissue. J. Bio Chem. 226:497-509, 1957.) and hydrolysis as described by Jope and Jenden (Jope RS, Jenden DJ. Choline and phospholipid metabolism and the synthesis of acetylcholine in rat brain. J. Neurosci Res. 4:69-82, 1979.). All blood samples were obtained on the subjects following an overnight fast and 3-5 hours following completion of the TPN.
# [3] = test system: total serum cholesterol; details: during the study
# Experimental: as §2, §3
# [4] = Subject #4, pharmacokinetic studies preceding the 6 week choline infusion
# [5] = all subjects; baseline 5.2±2.1, normal 11.4+/-3.7 nmol/ml
# Description: as §1, with “females aged 45, 50 and 72 years” for “females”
# as §2
# The hepatic transaminase levels and cholesterol were determined using standard automated techniques. […]
# [6] = Description: as §1, §2
# Remark: listed apart in the source
# [7] = concentrations as high as 10 g/l
# [8] = various TPN nutrient solutions, at least 30 days
structure (smiles),measurement,setting,value
C[N+](C)(C)CCO.[Cl-] [choline chloride],"Liver-spleen Hounsfield unit differential, 4 Wks post choline","[1]; 4 weeks after choline discontinued, b48 Subject 1 (baseline -47.0), b50 Subject 2 (-0.7), b52 Subject 3 (0.3)",10.6 Hounsfield unit and 15.7 Hounsfield unit and 15.0 Hounsfield unit
same,"Liver-spleen Hounsfield unit differential, 10 weeks post choline supplementation","[1]; Subject 4 (baseline -9.4), 10 weeks post choline supplementation",-6.3 Hounsfield unit
same,"liver-spleen CT number differential, normalisation","[1]; concurrent scans, six weeks of choline",assumed a normal or near-normal relationship
same,hepatic steatosis four weeks after choline was discontinued,[1]; follow-up post-supplementation CT,had not yet returned to baseline
same,"improvement of CT number difference (liver-spleen subtraction method), average","[1]; initial CT two weeks after choline started vs baseline, 4 subjects, p=0.002",20+/-16.5 HU
same,hepatic steatosis ten weeks after choline supplemented TPN discontinued,[1]; one subject (printed #3),had recurred
same,liver density ten weeks after choline supplemented TPN discontinued,[1]; one subject (printed #3),appeared identical to the baseline CT scan
same,liver-spleen differential ten weeks after choline supplemented TPN discontinued,[1]; one subject (printed #3),"returned to its original, pre-choline supplementation value"
same,hepatic steatosis during six weeks of choline supplementation,"[1]; six weeks of choline, all four subjects",completely resolved in all four subjects
same,liver density at initial CT scan,[1]; two weeks after choline supplementation initiated,marked increase in liver density
same,hepatic steatosis at initial CT scan,"[1]; two weeks after choline supplementation initiated, all 4 subjects",decreased significantly in all 4 subjects
same,"CT number difference (liver-spleen subtraction method), mean after choline","[1]; two weeks of choline, 4 subjects, baseline -14.2+/-22.3 HU, p=0.002",8.4 +/-10.3 HU
same,hepatic transaminase levels,[2],No significant decreases
same,total serum cholesterol,[3],No change
same,plasma free choline level tolerated without any side effects,[4],≤ 230 nmol/mL
same,plasma free choline level after one week of choline supplementation,[5],increased into the normal range
same,tolerability after dose increased back to 1 g/day,"[6]; Subject #4, from day 30 for remainder of study, 1 g/day",without complaints
same,side effect requiring dose adjustment,"[6]; Subject #4, upon awakening at end of choline infusion, dose decreased from 2 g/day to 1 g/day, then 1 g every other day",mild nausea
same,side effects or dose adjustment in other subjects,[6]; subjects other than #4,No other subject experienced any side effects or required a dose adjustment
same,effect on amino acid availability of the TPN solution,[7],does not affect
same,effect on pH of the TPN solution,[7],does not affect
same,stability in TPN solution,[7],at least 30 days
same,stability in various TPN nutrient solutions,various TPN nutrient solutions,at least 30 days
same,effect on TPN solution amino acid concentrations,[8],no adverse affects
same,effect on TPN solution pH,[8],no adverse affects
same,effect on TPN solution turbidity,[8],no adverse affects
